target: Cytochrome P450 2C9 (Homo sapiens, UniProt P11712); experiment: Inhibition of CYP2C9; assay type: ADME; details: not given
Sequence (P11712 whole entry): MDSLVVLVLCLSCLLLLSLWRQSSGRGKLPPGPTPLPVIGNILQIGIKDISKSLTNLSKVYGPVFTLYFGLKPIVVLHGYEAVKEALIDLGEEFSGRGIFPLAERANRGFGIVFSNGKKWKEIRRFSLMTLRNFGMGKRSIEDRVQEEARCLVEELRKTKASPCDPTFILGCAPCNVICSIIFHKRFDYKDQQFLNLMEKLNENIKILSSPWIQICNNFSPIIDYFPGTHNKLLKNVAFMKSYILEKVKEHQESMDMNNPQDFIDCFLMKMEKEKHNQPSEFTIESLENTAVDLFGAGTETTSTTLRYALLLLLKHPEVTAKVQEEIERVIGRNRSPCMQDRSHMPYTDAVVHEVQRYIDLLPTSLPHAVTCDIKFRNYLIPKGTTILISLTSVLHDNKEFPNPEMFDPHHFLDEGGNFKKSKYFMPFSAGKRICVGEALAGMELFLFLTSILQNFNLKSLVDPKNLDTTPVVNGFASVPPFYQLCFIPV

IC50 [nM]	Compound
> 30000	CC(C)n1nc(-c2ccc(OCCCN3CCC[C@H]3C)cc2)c2sccc2c1=O
> 30000	Cn1nc(-c2ccc(OCCCN3CCCCC3)cc2)c2c(c1=O)CCC2
> 30000	CN1N=C(c2ccc(OCCCN3CCCCC3)cc2)C2CCCC2C1=O (stereo unspecified)

target: T1, Cytochrome P450 1A2 (Homo sapiens, UniProt P05177); experiment: Inhibition of CYP1A2; assay type: ADME; details: not given
T1 sequence (P05177 whole entry): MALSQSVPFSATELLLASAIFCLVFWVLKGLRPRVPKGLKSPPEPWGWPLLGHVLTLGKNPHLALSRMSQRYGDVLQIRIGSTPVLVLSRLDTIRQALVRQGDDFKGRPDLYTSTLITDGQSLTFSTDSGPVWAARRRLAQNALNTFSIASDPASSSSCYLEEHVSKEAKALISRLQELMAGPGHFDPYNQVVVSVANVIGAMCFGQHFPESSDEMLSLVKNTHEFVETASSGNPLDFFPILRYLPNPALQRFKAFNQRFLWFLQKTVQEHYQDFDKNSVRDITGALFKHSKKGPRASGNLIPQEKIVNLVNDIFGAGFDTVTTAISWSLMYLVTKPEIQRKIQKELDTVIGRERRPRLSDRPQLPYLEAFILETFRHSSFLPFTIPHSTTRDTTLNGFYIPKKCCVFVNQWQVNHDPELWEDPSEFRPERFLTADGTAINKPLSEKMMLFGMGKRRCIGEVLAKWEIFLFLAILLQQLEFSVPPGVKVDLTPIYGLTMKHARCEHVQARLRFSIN

IC50 [nM]	Compound
> 30000	CC(C)n1nc(-c2ccc(OCCCN3CCC[C@H]3C)cc2)c2sccc2c1=O
> 30000	Cn1nc(-c2ccc(OCCCN3CCCCC3)cc2)c2c(c1=O)CCC2
> 30000	CN1N=C(c2ccc(OCCCN3CCCCC3)cc2)C2CCCC2C1=O (stereo unspecified)

target: Histamine H3 receptor (Rattus norvegicus, UniProt Q9QYN8); experiment: Displacement of [3H]-NAMH from rat histamine H3 receptor expressed in CHO cells; assay type: cell-based; details: not given
Sequence (Q9QYN8 whole entry): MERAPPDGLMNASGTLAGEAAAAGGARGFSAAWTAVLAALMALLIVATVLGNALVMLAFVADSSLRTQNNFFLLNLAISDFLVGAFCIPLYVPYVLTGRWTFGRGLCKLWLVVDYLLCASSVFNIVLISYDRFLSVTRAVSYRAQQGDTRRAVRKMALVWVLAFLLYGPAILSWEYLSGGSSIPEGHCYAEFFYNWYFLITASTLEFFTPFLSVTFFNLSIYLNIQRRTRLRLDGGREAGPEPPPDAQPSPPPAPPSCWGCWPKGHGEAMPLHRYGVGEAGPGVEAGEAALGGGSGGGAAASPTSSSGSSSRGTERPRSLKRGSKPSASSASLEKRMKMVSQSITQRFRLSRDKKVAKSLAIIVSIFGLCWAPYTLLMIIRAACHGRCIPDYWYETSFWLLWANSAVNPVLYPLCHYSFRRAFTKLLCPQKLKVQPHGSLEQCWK

Ki [nM]	Compound
> 1000	Cn1nc(-c2ccc(OCCN3CCCCC3)cc2)c2ccccc2c1=O
3.6	Cn1nc(-c2ccc(OCCCN3CCCC3)cc2)c2ccccc2c1=O
12	C[C@@H]1CCCN1CCCOc1ccc(-c2nn(Cc3ccc(Cl)cc3)c(=O)c3ccccc23)cc1
8.3	CC(C)n1nc(-c2ccc(OCCCN3CCC[C@H]3C)cc2)c2sccc2c1=O
4.3	Cn1nc(-c2ccc(OCCCN3CCCCC3)cc2)c2c(c1=O)CCC2
9.4	CN1N=C(c2ccc(OCCCN3CCCCC3)cc2)C2CCCC2C1=O (stereo unspecified)

target: Cytochrome P450 2C19 (Homo sapiens, UniProt P33261); experiment: Inhibition of CYP2C19; assay type: ADME; details: not given
Sequence (P33261 whole entry): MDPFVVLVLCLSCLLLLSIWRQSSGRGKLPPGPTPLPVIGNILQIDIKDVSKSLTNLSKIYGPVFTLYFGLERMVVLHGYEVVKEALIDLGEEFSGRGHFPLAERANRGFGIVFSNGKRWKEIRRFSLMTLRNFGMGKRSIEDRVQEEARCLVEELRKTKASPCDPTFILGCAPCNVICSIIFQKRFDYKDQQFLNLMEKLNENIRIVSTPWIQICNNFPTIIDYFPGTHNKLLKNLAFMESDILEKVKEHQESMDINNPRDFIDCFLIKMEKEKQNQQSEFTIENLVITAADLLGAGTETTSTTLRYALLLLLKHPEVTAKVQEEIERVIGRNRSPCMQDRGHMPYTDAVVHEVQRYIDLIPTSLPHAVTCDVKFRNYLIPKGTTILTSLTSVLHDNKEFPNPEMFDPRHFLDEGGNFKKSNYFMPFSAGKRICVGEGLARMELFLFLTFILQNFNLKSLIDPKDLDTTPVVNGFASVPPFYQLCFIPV

IC50 [nM]	Compound
> 30000	CC(C)n1nc(-c2ccc(OCCCN3CCC[C@H]3C)cc2)c2sccc2c1=O
> 30000	Cn1nc(-c2ccc(OCCCN3CCCCC3)cc2)c2c(c1=O)CCC2
> 30000	CN1N=C(c2ccc(OCCCN3CCCCC3)cc2)C2CCCC2C1=O (stereo unspecified)

target: Cytochrome P450 2D6 (Homo sapiens, UniProt P10635); experiment: Inhibition of CYP2D6; assay type: ADME; details: not given
Sequence (P10635 whole entry): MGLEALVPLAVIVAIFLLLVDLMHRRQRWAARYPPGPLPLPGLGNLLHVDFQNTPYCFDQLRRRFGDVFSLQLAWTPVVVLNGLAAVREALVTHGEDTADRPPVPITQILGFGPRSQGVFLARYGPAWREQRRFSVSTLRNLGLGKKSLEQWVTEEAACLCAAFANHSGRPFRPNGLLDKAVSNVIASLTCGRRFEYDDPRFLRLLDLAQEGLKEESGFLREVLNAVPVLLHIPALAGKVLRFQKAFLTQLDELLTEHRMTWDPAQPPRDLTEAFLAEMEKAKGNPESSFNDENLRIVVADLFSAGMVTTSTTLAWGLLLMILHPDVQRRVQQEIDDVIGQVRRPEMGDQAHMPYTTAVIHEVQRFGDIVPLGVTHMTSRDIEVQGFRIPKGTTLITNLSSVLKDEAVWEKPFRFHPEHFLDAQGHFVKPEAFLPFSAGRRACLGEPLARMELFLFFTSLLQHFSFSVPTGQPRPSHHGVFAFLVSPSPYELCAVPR

IC50 [nM]	Compound
> 30000	CC(C)n1nc(-c2ccc(OCCCN3CCC[C@H]3C)cc2)c2sccc2c1=O
> 30000	Cn1nc(-c2ccc(OCCCN3CCCCC3)cc2)c2c(c1=O)CCC2
> 30000	CN1N=C(c2ccc(OCCCN3CCCCC3)cc2)C2CCCC2C1=O (stereo unspecified)

target: Cytochrome P450 3A4 (Homo sapiens, UniProt P08684); experiment: Inhibition of CYP3A4; assay type: ADME; details: not given
Sequence (P08684 whole entry): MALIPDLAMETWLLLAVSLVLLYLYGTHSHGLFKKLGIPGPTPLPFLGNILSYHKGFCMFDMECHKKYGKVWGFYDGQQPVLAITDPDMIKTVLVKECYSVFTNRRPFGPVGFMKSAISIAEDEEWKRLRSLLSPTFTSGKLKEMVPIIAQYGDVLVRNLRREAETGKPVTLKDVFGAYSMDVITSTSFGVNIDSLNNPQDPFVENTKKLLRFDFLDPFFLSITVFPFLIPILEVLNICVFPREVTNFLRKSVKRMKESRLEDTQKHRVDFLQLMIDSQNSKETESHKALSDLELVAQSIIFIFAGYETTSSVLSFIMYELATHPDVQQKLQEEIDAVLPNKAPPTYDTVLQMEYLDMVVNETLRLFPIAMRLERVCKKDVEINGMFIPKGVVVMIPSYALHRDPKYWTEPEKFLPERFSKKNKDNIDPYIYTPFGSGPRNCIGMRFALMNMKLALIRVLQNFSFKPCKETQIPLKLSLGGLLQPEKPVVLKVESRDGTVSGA

IC50 [nM]	Compound
> 30000	CC(C)n1nc(-c2ccc(OCCCN3CCC[C@H]3C)cc2)c2sccc2c1=O
> 30000	Cn1nc(-c2ccc(OCCCN3CCCCC3)cc2)c2c(c1=O)CCC2
> 30000	CN1N=C(c2ccc(OCCCN3CCCCC3)cc2)C2CCCC2C1=O (stereo unspecified)

target: T2, Histamine H3 receptor (Homo sapiens, UniProt Q9Y5N1); experiment: Antagonist activity at recombinant human histamine H3 receptor assessed as inhibition of RAMH-induced [35S]GTPgammaS binding; assay type: functional; details: not given
T2 sequence (Q9Y5N1 whole entry): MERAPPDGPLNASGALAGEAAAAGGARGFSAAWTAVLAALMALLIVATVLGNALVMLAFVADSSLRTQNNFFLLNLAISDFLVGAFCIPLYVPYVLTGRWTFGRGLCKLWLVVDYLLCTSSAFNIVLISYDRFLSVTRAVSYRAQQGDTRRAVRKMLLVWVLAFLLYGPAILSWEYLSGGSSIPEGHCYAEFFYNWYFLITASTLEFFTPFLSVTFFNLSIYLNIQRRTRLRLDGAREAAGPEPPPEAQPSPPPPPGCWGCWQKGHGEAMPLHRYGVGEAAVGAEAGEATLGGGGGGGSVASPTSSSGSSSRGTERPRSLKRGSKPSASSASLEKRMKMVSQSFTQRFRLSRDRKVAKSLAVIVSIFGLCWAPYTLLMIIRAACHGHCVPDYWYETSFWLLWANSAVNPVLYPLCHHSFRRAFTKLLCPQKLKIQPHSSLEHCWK

Kb [nM]	Compound
0.2	Cn1nc(-c2ccc(OCCCN3CCCCC3)cc2)c2c(c1=O)CCC2

target: T2, Histamine H3 receptor; experiment: Inverse agonist activity at human histamine H3 receptor assessed as decrease of basal activity of [35S]GTPgammaS binding; assay type: functional; details: not given

EC50 [nM]	Compound
0.8	Cn1nc(-c2ccc(OCCCN3CCCCC3)cc2)c2c(c1=O)CCC2

tested on: not listed separately; experiment: Half life in rat at 1 mg/kg, iv; assay type: ADME, organism-based; design: dose 1 mg/kg, route intravenous; details: in vivo

half-life [min]	Compound
18	CC(C)n1nc(-c2ccc(OCCCN3CCC[C@H]3C)cc2)c2sccc2c1=O

tested on: not listed separately; experiment: AUC in rat at 1 mg/kg, iv; assay type: ADME, organism-based; design: dose 1 mg/kg, route intravenous; details: plasma

AUC [ng·h/mL]	Compound
160	CC(C)n1nc(-c2ccc(OCCCN3CCC[C@H]3C)cc2)c2sccc2c1=O

tested on: not listed separately; experiment: Volume of distribution in rat at 1 mg/kg, iv; assay type: ADME, organism-based; design: dose 1 mg/kg, route intravenous; details: in vivo

Vd [L/kg]	Compound
2.98	CC(C)n1nc(-c2ccc(OCCCN3CCC[C@H]3C)cc2)c2sccc2c1=O

tested on: not listed separately; experiment: Clearance in rat at 1 mg/kg, iv; assay type: ADME, organism-based; design: dose 1 mg/kg, route intravenous; details: in vivo

clearance [mL/min/kg]	Compound
117	CC(C)n1nc(-c2ccc(OCCCN3CCC[C@H]3C)cc2)c2sccc2c1=O

tested on: not listed separately; experiment: Cmax in rat at 5 mg/kg, po; assay type: ADME, organism-based; design: dose 5 mg/kg, route oral; details: in vivo

Cmax [ng/mL]	Compound
< 5	CC(C)n1nc(-c2ccc(OCCCN3CCC[C@H]3C)cc2)c2sccc2c1=O

tested on: not listed separately; experiment: Oral bioavailability in rat at 5 mg/kg; assay type: ADME, organism-based; details: in vivo

bioavailability [%]	Compound
< 1	CC(C)n1nc(-c2ccc(OCCCN3CCC[C@H]3C)cc2)c2sccc2c1=O

tested on: not listed separately; experiment: Ratio of drug level in brain to plasma in ip dosed rat after 1 hr; assay type: ADME, organism-based; details: read-out: BPR

Kp at 1 h	Compound
4.07	CC(C)n1nc(-c2ccc(OCCCN3CCC[C@H]3C)cc2)c2sccc2c1=O

target: T2, Histamine H3 receptor; experiment: biochemical; details: not given

Ki [nM]	Compound
84	Cn1nc(-c2ccc(OCCN3CCCCC3)cc2)c2ccccc2c1=O
1.7	Cn1nc(-c2ccc(OCCCN3CCCC3)cc2)c2ccccc2c1=O
4.6	C[C@@H]1CCCN1CCCOc1ccc(-c2nn(Cc3ccc(Cl)cc3)c(=O)c3ccccc23)cc1
2.6	CC(C)n1nc(-c2ccc(OCCCN3CCC[C@H]3C)cc2)c2sccc2c1=O
0.5	Cn1nc(-c2ccc(OCCCN3CCCCC3)cc2)c2c(c1=O)CCC2
2.3	CN1N=C(c2ccc(OCCCN3CCCCC3)cc2)C2CCCC2C1=O (stereo unspecified)

Reference: ChEMBL document CHEMBL1833909, “Synthesis and structure-activity relationships of 4,5-fused pyridazinones as histamine H₃ receptor antagonists” (Bioorg Med Chem Lett, 2011)
